Experimental data reported in patent US20190345138A1, “HETEROCYCLIC AMIDES AS KINASE INHIBITORS” (GlaxoSmithKline Intellectual Property Development Limited, priority 2016, published 2019).
Several values for one entry are separate records, joined by “and”; a condition that tells them apart may be missing. Equal entries are not always repeated.

How the values were obtained:
[1] = target: T1, RIP1 kinase (Homo sapiens, UniProt Q13546); assay: fluorescent polarization based binding assay; conditions: mean of a minimum of 2 experiments
T1 sequence (Q13546 1-375 limits assumed): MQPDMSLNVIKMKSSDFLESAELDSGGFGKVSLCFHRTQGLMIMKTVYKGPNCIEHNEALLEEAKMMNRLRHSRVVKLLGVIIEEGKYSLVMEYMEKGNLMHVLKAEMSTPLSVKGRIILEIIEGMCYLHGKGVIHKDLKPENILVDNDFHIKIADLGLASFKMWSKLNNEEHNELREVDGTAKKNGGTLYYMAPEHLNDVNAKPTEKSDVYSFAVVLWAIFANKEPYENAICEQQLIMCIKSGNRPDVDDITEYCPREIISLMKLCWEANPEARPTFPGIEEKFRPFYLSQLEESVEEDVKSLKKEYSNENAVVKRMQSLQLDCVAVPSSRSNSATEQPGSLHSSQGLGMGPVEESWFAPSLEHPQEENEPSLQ
From the text: A fluorescent polarization based binding assay was used to assess the activity of the compounds of this invention, the details of which are disclosed in International Patent Appln. No. PCT/IB2014/059004, now, International Patent Appln. Pub.

[2] = system: human monocytic leukemia U937 cells; assay: necroptosis assay in U937 cells; type: cell-based; conditions: Homo sapiens, U-937, U937 cells; viability by cellular ATP (Cell Titer-Glo); read-out: pIC50, inhibited necrosis in U937 cells (converted)
Protocol: The efficacy of RIP1 inhibitors can be tested […] in vitro using a human monocytic leukemia U937 or mouse L929 fibrosarcoma cells in a necroptosis assay. As determined using the method described in S. He et al., Cell, 137(6):1100-1111 (2009) and International Patent Appln. No. PCT/IB2014/059004, now, International Patent Appln. Pub.
Viability was measured by quantitating cellular levels of ATP using the Cell Titer-Glo kit. All data are means±standard deviation of the mean.

Compound | IC50 [1] | IC50 [2] [nM]
O=C1Cc2cnc(N3CCC(C(=O)N4N=CC[C@H]4c4cc(F)cc(F)c4)CC3)nc2N1 [Example 80, (S)-2-(4-(5-(3,5-difluorophenyl)-4,5-dihydro-1H-pyrazole-1-carbonyl)piperidin-1-yl)-5H-pyrrolo[2,3-d]pyrimidin-6(7H)-one] | 1 to 31.6 nM and 1 to 10 nM | 1 to 100
CNc1ccnc(N2CCC(C(=O)N3N=CC[C@H]3c3ccccc3)CC2)n1 [Example 16, (S)-(1-(4-(methylamino)pyrimidin-2-yl)piperidin-4-yl)(5-phenyl-4,5-dihydro-1H-pyrazol-1-yl)methanone] | 1 to 31.6 nM | 1 to 100
O=C(C1CCN(c2ccc3nccn3n2)CC1)N1N=CC[C@H]1c1cncc(F)c1 [Example 117, (S)-(5-(5-fluoropyridin-3-yl)-4,5-dihydro-1H-pyrazol-1-yl)(1-(imidazo[1,2-b]pyridazin-6-yl)piperidin-4-yl)methanone] | 1 to 31.6 nM | 1 to 100
O=C(C1CCN(c2ccnc(C(F)(F)F)n2)CC1)N1N=CC[C@H]1c1ccccc1 [Example 46, (S)-(5-phenyl-4,5-dihydro-1H-pyrazol-1-yl)(1-(2-(trifluoromethyl)pyrimidin-4-yl)piperidin-4-yl)methanone] | 1 to 31.6 nM and 1 to 10 nM | 1 to 100
COc1nccc(N2CCC(C(=O)N3N=CC[C@H]3c3cc(F)cc(F)c3)CC2)n1 [Example 99, (S)-(5-(3,5-difluorophenyl)-4,5-dihydro-1H-pyrazol-1-yl)(1-(2-methoxypyrimidin-4-yl)piperidin-4-yl)methanone] | 1 to 31.6 nM and 1 to 10 nM | 1 to 100
CC(=O)N1CCC(NC(=O)c2ccnc(N3CCC(C(=O)N4N=CC[C@H]4c4ccccc4)CC3)n2)CC1 [Example 144, (S)-N-(1-acetylpiperidin-4-yl)-2-(4-(5-phenyl-4,5-dihydro-1H-pyrazole-1-carbonyl)piperidin-1-yl)pyrimidine-4-carboxamide] | 1 to 31.6 nM | 1 to 100
C#Cc1cc(N2CCC(C(=O)N3N=CC[C@H]3c3cc(F)cc(F)c3)CC2)ncn1 [Example 157, (S)-(5-(3,5-difluorophenyl)-4,5-dihydro-1H-pyrazol-1-yl)(1-(6-ethynylpyrimidin-4-yl)piperidin-4-yl)methanone] | 1 to 31.6 nM and 1 to 10 nM | 1 to 100
O=C1Cc2cnc(N3CCC(C(=O)N4N=CC[C@H]4c4ccccc4)CC3)nc2N1 [Example 24, (S)-2-(4-(5-phenyl-4,5-dihydro-1H-pyrazole-1-carbonyl)piperidin-1-yl)-5H-pyrrolo[2,3-d]pyrimidin-6(7H)-one] | 1 to 31.6 nM | 1 to 100
O=C(C1CCN(c2ccn3nccc3n2)CC1)N1N=CC[C@H]1c1ccccc1 [Example 21, (S)-(5-phenyl-4,5-dihydro-1H-pyrazol-1-yl)(1-(pyrazolo[1,5-a]pyrimidin-5-yl)piperidin-4-yl)methanone] | 1 to 31.6 nM and 1 to 10 nM | 1 to 100
O=C(C1CCN(c2ncc(O)cn2)CC1)N1N=CC[C@H]1c1ccccc1 [Example 128, (S)-(1-(5-hydroxypyrimidin-2-yl)piperidin-4-yl)(5-phenyl-4,5-dihydro-1H-pyrazol-1-yl)methanone] | 1 to 31.6 nM | 1 to 100
CSc1nccc(N2CCC(C(=O)N3N=CC[C@H]3c3cc(F)cc(F)c3)CC2)n1 [Example 82, (S)-(5-(3,5-difluorophenyl)-4,5-dihydro-1H-pyrazol-1-yl)(1-(2-(methylthio)pyrimidin-4-yl)piperidin-4-yl)methanone] | 1 to 31.6 nM and 1 to 10 nM | 1 to 100
CNc1nccc(N2CCC(C(=O)N3N=CC[C@H]3c3cc(F)cc(F)c3)CC2)n1 [Example 100, (S)-(5-(3,5-difluorophenyl)-4,5-dihydro-1H-pyrazol-1-yl)(1-(2-(methylamino)pyrimidin-4-yl)piperidin-4-yl)methanone] | 1 to 31.6 nM | 1 to 100
N#Cc1cnc(N2CCC(C(=O)N3N=CCC3c3ccccc3)CC2)nc1 (racemic) [Example 2, 2-(4-(5-phenyl-4,5-dihydro-1H-pyrazole-1-carbonyl)piperidin-1-yl)pyrimidine-5-carbonitrile] | 1 to 31.6 nM | 1 to 100
N#Cc1csc(N2CCC(C(=O)N3N=CC[C@H]3c3ccccc3)CC2)n1 [Example 53, (S)-2-(4-(5-phenyl-4,5-dihydro-1H-pyrazole-1-carbonyl)piperidin-1-yl)thiazole-4-carbonitrile] | 1 to 31.6 nM and 1 to 10 nM | 1 to 100
N#Cc1coc(N2CCC(C(=O)N3N=CC[C@H]3c3cc(F)cc(F)c3)CC2)n1 [Example 135, (S)-2-(4-(5-(3,5-difluorophenyl)-4,5-dihydro-1H-pyrazole-1-carbonyl)piperidin-1-yl)oxazole-4-carbonitrile] | 1 to 31.6 nM and 1 to 10 nM | 1 to 100
O=C(C1CCN(c2ccc(C(F)(F)F)nn2)CC1)N1N=CC[C@H]1c1ccccc1 [Example 26, (S)-(5-phenyl-4,5-dihydro-1H-pyrazol-1-yl)(1-(6-(trifluoromethyl)pyridazin-3-yl)piperidin-4-yl)methanone] | 1 to 31.6 nM | 1 to 100
NC(=O)c1cncc(N2CCC(C(=O)N3N=CC[C@H]3c3ccccc3)CC2)n1 [Example 31, (S)-6-(4-(5-phenyl-4,5-dihydro-1H-pyrazole-1-carbonyl)piperidin-1-yl)pyrazine-2-carboxamide] | 1 to 31.6 nM | 1 to 100
COc1ccnc(N2CCC(C(=O)N3N=CC[C@H]3c3cc(F)cc(F)c3)CC2)n1 [Example 79, (S)-(5-(3,5-difluorophenyl)-4,5-dihydro-1H-pyrazol-1-yl)(1-(4-methoxypyrimidin-2-yl)piperidin-4-yl)methanone] | 1 to 31.6 nM and 1 to 10 nM | 1 to 100
N#Cc1cnc(N2CCC(C(=O)N3N=CC[C@H]3c3ccccc3)CC2)cn1 [Example 40, (S)-5-(4-(5-phenyl-4,5-dihydro-1H-pyrazole-1-carbonyl)piperidin-1-yl)pyrazine-2-carbonitrile] | 1 to 31.6 nM and 1 to 10 nM | 1 to 100
O=C(C1CCN(c2ccc3nccn3n2)CC1)N1N=CC[C@H]1c1ccccc1 [Example 22, (S)-(1-(imidazo[1,2-b]pyridazin-6-yl)piperidin-4-yl)(5-phenyl-4,5-dihydro-1H-pyrazol-1-yl)methanone] | 1 to 31.6 nM and 1 to 10 nM | 1 to 100
O=C(NCCO)c1ccnc(N2CCC(C(=O)N3N=CC[C@H]3c3ccccc3)CC2)n1 [Example 126, (S)-N-(2-hydroxyethyl)-2-(4-(5-phenyl-4,5-dihydro-1H-pyrazole-1-carbonyl)piperidin-1-yl)pyrimidine-4-carboxamide] | 1 to 31.6 nM | 1 to 100
O=C(C1CCN(c2cncc(-c3ccccc3)n2)CC1)N1N=CC[C@H]1c1ccccc1 [Example 38, (S)-(5-phenyl-4,5-dihydro-1H-pyrazol-1-yl)(1-(6-phenylpyrazin-2-yl)piperidin-4-yl)methanone] | 1 to 31.6 nM | 1 to 100
O=C(C1CCN(c2ncc(F)c(OCCN3CCOCC3)n2)CC1)N1N=CC[C@H]1c1ccccc1 [Example 127, (S)-(1-(5-fluoro-4-(2-morpholinoethoxy)pyrimidin-2-yl)piperidin-4-yl)(5-phenyl-4,5-dihydro-1H-pyrazol-1-yl)methanone] | 1 to 31.6 nM and 1 to 10 nM | 1 to 100
Nc1cncc(N2CCC(C(=O)N3N=CC[C@H]3c3ccccc3)CC2)n1 [Example 41, (S)-(1-(6-aminopyrazin-2-yl)piperidin-4-yl)(5-phenyl-4,5-dihydro-1H-pyrazol-1-yl)methanone] | 1 to 31.6 nM | 1 to 100
Nc1ncnc(N2CCC(C(=O)N3N=CC[C@H]3c3ccccc3)CC2)c1F [Example 61, (S)-(1-(6-amino-5-fluoropyrimidin-4-yl)piperidin-4-yl)(5-phenyl-4,5-dihydro-1H-pyrazol-1-yl)methanone] | 1 to 31.6 nM and 1 to 10 nM | 1 to 100
CN1CCN(C(=O)c2ccnc(N3CCC(C(=O)N4N=CC[C@H]4c4ccccc4)CC3)n2)CC1 [Example 141, (S)-(4-methylpiperazin-1-yl)(2-(4-(5-phenyl-4,5-dihydro-1H-pyrazole-1-carbonyl)piperidin-1-yl)pyrimidin-4-yl)methanone] | 1 to 31.6 nM | 1 to 100
N#Cc1nccc(N2CCC(C(=O)N3N=CC[C@H]3c3cncc(F)c3)CC2)n1 [Example 115, (S)-4-(4-(5-(5-fluoropyridin-3-yl)-4,5-dihydro-1H-pyrazole-1-carbonyl)piperidin-1-yl)pyrimidine-2-carbonitrile] | 1 to 31.6 nM | 1 to 100
N#Cc1cnc(N2CCC(C(=O)N3N=CC[C@H]3c3cc(F)cc(F)c3)CC2)o1 [Example 133, (S)-2-(4-(5-(3,5-difluorophenyl)-4,5-dihydro-1H-pyrazole-1-carbonyl)piperidin-1-yl)oxazole-5-carbonitrile] | 1 to 31.6 nM and 1 to 10 nM | 1 to 100
O=C(NC1CCNCC1)c1ccnc(N2CCC(C(=O)N3N=CC[C@H]3c3ccccc3)CC2)n1 [Example 147, (S)-2-(4-(5-phenyl-4,5-dihydro-1H-pyrazole-1-carbonyl)piperidin-1-yl)-N-(piperidin-4-yl)pyrimidine-4-carboxamide] | 1 to 31.6 nM | 1 to 100
